Earlier results on one compound are cited in patent publication US12552760B2, “Compounds for increasing the nicotinamide adenine dinucleotide in a subject and methods of use thereof” (The Board of Trustees of the University of Illinois, priority 2022, dated 2026).

In series [1] the test system is HT22. As to conditions: 0.1 mM & 1.0 mM, 24 h; Koh, P. 2013; cited from earlier work.
For series [2], the system named is Sprague-Dawley rats. As to conditions: 500 mg/kg (i.p.) 2 h after MCAO for 22 hrs; Koh, P. 2013; cited from earlier work.
The test system of series [3] is 3xTgAD mice. As to conditions: 40 mg/kg/d (p.o.) 8 months; Liu, D. et al. 2013; cited from earlier work.
For series [4], the system named is cultured primary neurons. As to conditions: 2-4 mM, 6 h; Liu, D. et al. 2013; cited from earlier work.
Series [5] has as its system Wistar rats. As to conditions: 100, 300, 500 mg/kg (i.p.) 8 days; Sidhu, A. et al. 2018; cited from earlier work.
In series [6] the test system is Brown Norway rats and C57BL/6 mice. The conditions noted are these: 200-400 mg/kg/d (p.o., rats), 500 mg/kg/d (p.o., mice), various treatment times; Tribble J. R. et al. 2021; cited from earlier work.
In series [7] the test system is C57BL/6 mice. As to conditions: 125, 250, 500 mg/kg (i.p.) 1 day (acute), 5 days (sub-acute); Anderson, D. W. et al. 2008; cited from earlier work.

`NC(=O)c1cccnc1` [NAM, nicotinamide]: in series [1], the Neuroprotection result is “Neuroprotection” and the “hippocalcin (crucial neuronal protein) depletion” value was “Prevented”. In series [2], the Decreased infarct volume result was “volume by 60%” and the hippocalcin depletion result was “Prevented”. Further, in series [3], the “Aβ and p-Tau” value is “Decreased Aβ”; the cognitive decline entry is given as “Ameliorated”. Moreover, the Neuroprotection entry in series [4] is given as “Neuroprotection”. Further, in series [5], the Neuroprotection entry is on record as “Neuroprotection”, the motor function result is on record as “Improved motor” and the oxidative stress result was “Prevented”. Moreover, in series [6], the Retinal ganglion neuroprotection result was “neuroprotection”, the metabolic disruption entry is on record as “Prevented” and the mitochondrial function result was “Improved”. Moreover, in series [7], the “dopamine concentration in both paradigms” value is reported as “Recovered”.
